Bridge positions count the residues as written; N and C are the ends. Peptide text beside a SMILES is read from it.
What was measured:
[1] = molecular target: avian influenza virus (AIV) subtype H9N2, purified whole virus particles; test: cell-based or functional assay
[2] = system: AIV H9N2; design: species or system avian influenza virus H9N2; settings: in vivo
[3] = system: avian influenza virus H9N2; assay type: cell-based
[4] = molecular target: Streptavidin (Streptomyces avidinii, UniProt P22629); assay type: binding
Chain of Streptavidin (P22629 25-183, species assumed): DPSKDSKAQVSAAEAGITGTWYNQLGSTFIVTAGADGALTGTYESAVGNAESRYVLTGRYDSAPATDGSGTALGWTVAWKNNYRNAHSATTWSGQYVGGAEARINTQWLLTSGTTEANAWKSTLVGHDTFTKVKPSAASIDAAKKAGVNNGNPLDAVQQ

| Compound | AIV titer in the allantoic fluid (haemagglutination titer) [2] | Agglutination of RBC (+AIV 32 HAU; 50 μl) [3] | Agglutination of RBC (−AIV 32 HAU; 50 μl) [3] | Frequency of sequences (%) [4] | further results |
| --- | --- | --- | --- | --- | --- |
| synthetic linear peptide NDFRSKT |  |  |  |  | IC50 [1]: < 100 µM |
| NDFRSKT | reduced the AIV titer | No and Yes | No |  |  |
| C[C@@H](O)[C@@H]1NC(=O)[C@H](CCCCN)NC(=O)[C@H](CO)NC(=O)[C@H](CCCNC(=N)N)NC(=O)[C@H](Cc2ccccc2)NC(=O)[C@H](CC(=O)O)NC(=O)[C@H](CC(N)=O)NC(=O)[C@@H](N)CSSC[C@@H](C(=O)O)NC1=O [CNDFRSKTC] (H-CNDFRSKTC-OH; disulfide 1-9 (inferred); N-terminus and C-terminus assumed) | reduced the AIV titer | No and Yes | No |  | IC50 ([2]; read-out: IC50, inhibition of propagation of AIV H9N2): < 100 µM |
| GLYNHPQ |  |  |  | 27% |  |
| HPQFLSL |  |  |  | 55% |  |
